≈ marks a conversion by molar mass, not a printed value. Calls of active or inactive are those of the source. The calls are words filed in the database; no cut-off is given here.
Assays:
P388 = assay: Cytotoxicity against mouse P388 cells by tetrazolium-based colorimetric assay; assay type: functional; settings: for EC50: read-out: ED50 (the source's name)
A549 = assay: Cytotoxicity against human A549 cells by tetrazolium-based colorimetric assay; assay type: functional, cell-based
HT-29 = assay: Cytotoxicity against human HT-29 cells by tetrazolium-based colorimetric assay; assay type: functional

Structure (SMILES)	Activity (P388)	Activity (A549)	Activity (HT-29)	EC50 (P388)	EC50 (HT-29; read-out: ED50 (the source's name))
CC(=O)O[C@@H]1[C@H](C)[C@@H]2[C@@H](OC(C)=O)[C@@]3(O)[C@H](/C=C(CO)\C=C/[C@H](O)[C@@]2(C)[C@H]2O[C@@H]12)OC(=O)[C@@H]3C	inactive	inactive	inactive	–	–
CCCC(=O)O[C@H]1C/C(C)=C\[C@@H]2OC(=O)[C@](C)(O)[C@]2(O)[C@H](OC(C)=O)[C@H]2[C@@H](C)[C@@H](O)C[C@H](OC(C)=O)[C@]2(C)[C@H]1OC(C)=O [BRIAEXCAVATOLIDE L]	–	–	–	0.5 µg/mL (≈ 0.816 µM)	–
CC(=O)O[C@H]1C/C(C)=C\[C@@H]2OC(=O)[C@](C)(O)[C@]2(O)[C@H](OC(C)=O)[C@H]2[C@@H](C)[C@@H](O)C[C@H](OC(C)=O)[C@]2(C)[C@H]1OC(C)=O	inactive	inactive	inactive	–	–
CC(=O)O[C@@H]1[C@H](C)[C@@H]2[C@@H](OC(C)=O)[C@@]3(O)[C@H](/C=C(CCl)\C=C/[C@H](O)[C@@]2(C)[C@H]2O[C@@H]12)OC(=O)[C@@H]3C	inactive	inactive	inactive	–	–
CC(=O)O[C@H]1CC/C(CO)=C\[C@@H]2OC(=O)[C@@]3(C)O[C@]23[C@H](O)[C@H]2[C@@H](C)[C@H](OC(C)=O)C=C[C@@]21C (relative stereo)	–	–	–	0.4 µg/mL (≈ 0.861 µM)	1.1 µg/mL (≈ 2.37 µM)

— ChEMBL document CHEMBL1150568, “Briaexcavatolides K-N, new briarane diterpenes from the gorgonian Briareum excavatum” (2001)
